Results taken from the supplement of paper PMC10307832.

Key:
Test in all cases: relative viability (nuclei count vs DMSO), 5 days (fraction); higher = more cells survive
[1] = compound: Cc1cc([C@@H](C)Nc2ccccc2C(=O)O)c2nc(N3CCOCC3)cc(=O)n2c1 [AZD6482] + COc1cccc2cc(-c3nc([C@H]4CC[C@H](C(=O)O)CC4)n4ncnc(N)c34)[nH]c12 [OSI-027] (partner 0.5 µM)
Outline: (§1)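 Values are medians from duplicate plates. Each reflects relative viability, defined as the nuclei count of treated wells over that of vehicle wells. Lung cancer cell lines in 1536-well plates were pin-tool dosed one day after seeding with one drug alone or with a fixed anchor-drug dose plus five library-drug doses (not always all listed) in √10 steps, then fixed, stained and imaged at 4× after 5 days.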

[2] = compound: COc1cc2nc(N3CCCN(C)CC3)nc(NC3CCN(Cc4ccccc4)CC3)c2cc1OC + Nc1nc2[nH]cc(CCc3ccc(C(=O)N[C@@H](CCC(=O)O)C(=O)O)cc3)c2c(=O)[nH]1 [Pemetrexed] (partner 0.2 µM)
Outline: as §1

[3] = compound: Cc1cc([C@@H](C)Nc2ccccc2C(=O)O)c2nc(N3CCOCC3)cc(=O)n2c1 [AZD6482] + O=C(c1cc(Cc2n[nH]c(=O)c3ccccc23)ccc1F)N1CCN(C(=O)C2CC2)CC1 [Olaparib] (partner 8 µM)
Outline: as §1

[4] = compound: Cc1cc([C@@H](C)Nc2ccccc2C(=O)O)c2nc(N3CCOCC3)cc(=O)n2c1 [AZD6482] + Nc1ncn([C@H]2C[C@H](O)[C@@H](CO)O2)c(=O)n1 [Decitabine] (partner 2 µM)
Outline: as §1

Cell Line | relative viability ([1]; first compound 0.08 µM) | relative viability ([1]; first compound 0.253 µM) | relative viability ([1]; first compound 0.8 µM) | relative viability ([1]; first compound 2.53 µM) | relative viability ([1]; first compound 8 µM) | relative viability ([2]; first compound 0.2 µM) | relative viability ([2]; first compound 0.6325 µM) | relative viability ([2]; first compound 2 µM) | relative viability ([2]; first compound 6.325 µM) | relative viability ([3]; first compound 0.08 µM) | relative viability ([3]; first compound 0.253 µM) | relative viability ([3]; first compound 0.8 µM) | relative viability ([3]; first compound 2.53 µM) | relative viability ([3]; first compound 8 µM) | relative viability ([4]; first compound 0.08 µM) | relative viability ([4]; first compound 0.253 µM) | relative viability ([4]; first compound 0.8 µM) | relative viability ([4]; first compound 2.53 µM) | relative viability ([4]; first compound 8 µM)
NCI-H2126 | 0.647 | 0.652 | 0.704 | 0.403 | 0.485 | 0.74 | 0.623 | 0.637 | 0.644 | 0.877 | 0.904 | 0.867 | 0.615 | 0.57 | 0.56 | 0.565 | 0.49 | 0.494 | 0.465
HOP-62 | 0.817 | 0.883 | 0.774 | 0.553 | 0.765 | 0.318 | 0.257 | 0.3 | 0.292 | 0.444 | 0.539 | 0.453 | 0.459 | 0.552 | 0.197 | 0.239 | 0.229 | 0.265 | 0.209
NCI-H520 | 0.214 | 0.176 | 0.211 | 0.178 | 0.178 | 0.608 | 0.622 | 0.573 | 0.183 | 0.295 | 0.266 | 0.262 | 0.162 | 0.185 | 0.418 | 0.331 | 0.344 | 0.198 | 0.244
NCI-H1755 | 0.605 | 0.595 | 0.662 | 0.486 | 0.494 | 0.459 | 0.415 | 0.414 | 0.368 | 0.839 | 0.755 | 0.769 | 0.583 | 0.601 | 0.709 | 0.733 | 0.749 | 0.668 | 0.6
NCI-H2023 | 0.398 | 0.336 | 0.341 | 0.237 | 0.245 | 0.161 | 0.254 | 0.248 | 0.144 | 0.496 | 0.457 | 0.43 | 0.353 | 0.379 | 0.226 | 0.185 | 0.214 | 0.269 | 0.179
NCI-H2009 | 0.56 | 0.601 | 0.555 | 0.224 | 0.388 | 1 | 0.972 | 1.03 | 0.943 | 0.597 | 0.683 | 0.703 | 0.452 | 0.619 | 0.387 | 0.373 | 0.361 | 0.321 | 0.342
